Reference: patent publication US8901314B2, “Substituted pyrazoles as N-type calcium channel blockers” (Janssen Pharmaceutica NV, priority 2012, dated 2014)

Assays:
[1] = tested on: Cav2.2 (N-type calcium channel; α1B, α2δ and β3 subunits stably expressed in HEK293 cells); test: Automated electrophysiology assay (QPatch-HT patch clamp); assay type: cell-based; settings: 0.1 μM; for QPatch % Inhibition, High Freq: high frequency stimulation (15th pulse of 5 Hz train); for QPatch % Inhibition, Low Freq: low frequency stimulation (1st pulse of train)
Protocol: The Cav2.2 (α1B) subunit (GenBank accession no. AAO53230; supplied by Lipscombe's laboratory at Brown University) was subcloned into pcDNA3.1, whereas the α2δ (M86621) and β3 (M88751) subunits were subcloned into pBudCE4.1 vectors. Stable cell lines expressing all three subunits were generated according to the following procedure: 1) HEK293 cells were transfected with α2δ−1/β3 expression constructs resulting in a stable cell line expressing α2δ−1 and β3 subunits that were selected under 200 μg/mL of Zeocin; 2) a stable cell line expressing α2δ−1/β3 subunits in high quantity as evidenced in its Western blots was isolated from the colony and purified; 3) this cell line was further transfected with Cav2.2 expression constructs, from which cells were subsequently selected under 400 μg/mL G418 and 200 μg/mL Zeocin; 4) these cells were clonally isolated, expanded and screened by Western blot analysis for expressing all three subunits
Cultures of cells stably expressing Cav2.2 were maintained at 37° C. in low glucose-containing Dulbecco's Modified Eagle medium (low glucose) under a 5% CO2 atmosphere. The medium was supplemented with 10% fetal bovine serum, 2 mM L-glutamine, 100 IU/mL penicillin, […] streptomycin, 400 μg/mL G418 and 200 μg/mL Zeocin.
High-throughput automated patch clamp system experiments were carried out using instruments (QPatch-HT) available from Sophion Biosciences, Inc. North Brunswick, N.J. Cells were grown in T175 flasks to 50%-90% confluence were enzymatically treated with Deatchin (Genlantis, San Diego, Calif., U.S.A.), centrifuged, rinsed and resuspended in 293 SFM II media (Life Technologies, Grand Island, N.Y., U.S.A.) supplemented with 25 mM HEPES (Sigma-Aldrich, St. Louis, Mo., U.S.A.) to a concentration of 2−3×10^6 cells/mL. Cells were added to automated cell preparation station on the QPatch-HT (Sophion Biosciences, North Brunswick, N.J., U.S.A.) and following a 10- to 30-min recovery period with gentle stirring, the assay protocol was initiated. During the automated cell preparation, cells were collected, centrifuged and resuspended in an extracellular (EC) solution containing 132 mM NaCl, 1.8 mM CaCl2, 5.4 mM KCl, 0.8 mM MgCl2, 10 mM glucose, and 10 mM HEPES (pH=7.4), adjusted with sucrose to 315 m0sm. The QPlate was primed with an intracellular solution containing 135 CsCl, 10 mM EGTA, 4 MgATP, 0.3 NaGTP, and 20 mM HEPES (pH=7.2), adjusted to approximately 290 m0sm with deionized water and the EC solution. Cells were added to the prepared QPlate wells by robotic pipettes of the QPatch-HT.
For cells determined to be in stable whole-cell patch clamp, the EC solution was replaced with a barium (Ba)/triethylammonium (TEA) solution containing 140 mM TEA-Cl, 10 mM BaCl2, 0.8 mM MgCl2, 10 mM glucose, and 10 mM HEPES (pH=7.4). High (40 mM) BaCl2 concentrations were made with adjustments of TEA-Cl (90 mM) to maintain the osmolarity. From a resting potential of −80 mV, a train of depolarizing pulses (15 pulses at 5 Hz, +20 mV) was delivered to the cell once every 30 sec for eight trains (4 min total), and the resulting currents were measured during a control period (no compound). This protocol was repeated for each subsequent addition of control buffer with or without compound (three periods total, each with four trains). The current generated in the 1st and 15th pulses of the last train of each period in the presence of each drug concentration was normalized to the current generated during the control period at the respective pulses (representing low- and high frequency stimulation, respectively). Data from both the second and third drug application period were analyzed for each cell. A final addition of Ba/TEA solution containing 60-100 uM CdCl2 was made to block all N-type current and “zero” the currents for each cell. A buffer/compound additions were made using a “spitting” feature of the QPatch-HT, which added three repretitions of 5 μL solution at the beginning of each recording period.

[2] = target: α1B (Cav2.2), β3 and α2δ subunits of the N-type calcium channel (stable HEK cell line) (Rattus norvegicus, UniProt Q02294); test: Calcium-dye indicator assay (FDSS, KCl depolarization); assay type: cell-based; settings: calcium mobilization response to 50 mM KCl; six-point concentration-response
Protocol: A stable cell line (HEK parent) co-expressing the α1B (Cav2.2), β3 and α2δ subunits of the N-type calcium channel subunits was used. These cells were routinely grown as monolayers in low glucose-containing Dulbecco's Modified Eagle Medium supplemented with 10% FBS, 2 mM L-glutamine, 100 I.U./mL penicillin, 100 μg/mL streptomycin, 400 μg/mL G418 and 200 μg/mL Zeocin (split ratio=1:5). Cells were maintained in 5% CO2 at 37° C. Compounds of Formula (I) were prepared as 10 mM stocks in DMSO from neat compound, if available. Otherwise, the 5 or 10 mM DMSO stock solutions provided in-house were used.
Calcium mobilization responses to KCl depolarization were evaluated by measuring the intensity of calcium-mediated fluorescent signal in the presence of BD Calcium Assay Dye (BD Biosciences, Franklin Lakes, N.J., U.S.A.), utilizing a Functional Drug Screening System (FDSS) by Hamamatsu Corporation (Bridgewater, N.J., U.S.A.).
Twenty-four hours prior to assay, cells were seeded in clear-base poly-D-lysine coated 384-well plates (BD Biosciences) at a density of 5,000 cells per well in culture medium and grown overnight in 5% CO2 at 37° C. On the day of assay growth media were removed and cells were loaded with BD calcium assay dye (BD Biosciences) for 35 min at 37° C. under 5% CO2 and then for 25 min at room temperature. Utilizing the FDSS, cells were exposed to representative compounds of Formula (I) at varying concentrations and intracellular calcium was measured for 5 min prior to the addition of 50 mM KCl for an additional 3 min of measurement.
Maximal fluorescence intensity (FI) achieved upon addition of 50 mM KCl was exported from the FDSS software and further analyzed using GraphPad Prism 4 (Graph Pad Software Inc., CA, U.S.A.). Data were normalized to the maximum average counts from quadruplicate wells for each condition in the presence of 50 mM KCl and to the minimum average counts in the presence of buffer. Theoretical curves were generated using nonlinear regression curve-fitting analysis of either sigmoidal concentration-response or sigmoidal concentration-response (variable slope), and the IC50 values with the best-fit dose curve determined by GraphPad Prism were reported.

Row | IC50 [2] | SMILES | QPatch % Inhibition, High Freq [1] | QPatch % Inhibition, Low Freq [1]
1 | 12 nM | COc1ccccc1-n1nc(C2C[C@@H](C)O[C@H](C)C2)cc1-c1ccccc1 (relative stereo) [Compound 67, 3-[(trans)-2,6-Dimethyltetrahydro-2H-pyran-4-yl]-1-(2-methoxyphenyl)-5-phenyl-1H-pyrazole] | 65% | 55%
2 | 72 nM | COc1ncc(-c2cc(C3CC(C)(C)OC(C)(C)C3)nn2-c2ccccc2OC)cn1 [Compound 39, 2-Methoxy-5-[1-(2-methoxyphenyl)-3-(2,2,6,6-tetramethyltetrahydro-2H-pyran-4-yl)-1H-pyrazol-5-yl]pyrimidine] | – | –
3 | 270 nM | CCN(CC)C(=O)c1ccc(-c2cc(C3CC(C)(C)OC(C)(C)C3)nn2-c2ccccc2OC)cc1 [Compound 40, N,N-Diethyl-4-[1-(2-methoxyphenyl)-3-(2,2,6,6-tetramethyltetrahydro-2H-pyran-4-yl)-1H-pyrazol-5-yl]-benzamide] | – | –
4 | 65 nM | COc1ccccc1-n1nc(C2CC(C)(C)OC(C)(C)C2)cc1-c1cc2ccccc2o1 [Compound 41, 5-(1-Benzofuran-2-yl)-1-(2-methoxyphenyl)-3-(2,2,6,6-tetramethyltetrahydro-2H-pyran-4-yl)-1H-pyrazole] | – | –
5 | 55 nM | COc1ccccc1-n1nc(C2CC(C)(C)OC(C)(C)C2)cc1-c1ccc2[nH]ccc2c1 [Compound 42, 5-[1-(2-Methoxyphenyl)-3-(2,2,6,6-tetramethyltetrahydro-2H-pyran-4-yl)-1H-pyrazol-5-yl]-1H-indole] | – | –
6 | 58 nM | COc1cc(OC)cc(-c2cc(C3CC(C)(C)OC(C)(C)C3)nn2-c2ccccc2OC)c1 [Compound 43, 5-(3,5-Dimethoxyphenyl)-1-(2-methoxyphenyl)-3-(2,2,6,6-tetramethyltetrahydro-2H-pyran-4-yl)-1H-pyrazole] | – | –
7 | 71 nM | COc1ccccc1-n1nc(C2CC(C)(C)OC(C)(C)C2)cc1-c1cccnc1 [Compound 45, 3-[1-(2-Methoxyphenyl)-3-(2,2,6,6-tetramethyltetrahydro-2H-pyran-4-yl)-1H-pyrazol-5-yl]-pyridine] | – | –
8 | 53 nM | Clc1ccc(-c2cc(C3CCOCC3)nn2-c2ccccc2Cl)cc1 [Compound 74, 1-(2-Chlorophenyl)-5-(4-chlorophenyl)-3-(tetrahydro-2H-pyran-4-yl)-1H-pyrazole] | – | –
9 | 100 nM | CC1(C)CC(c2cc(-c3ccc(Cl)cc3)n(-c3ccccc3N3CCCC3)n2)CC(C)(C)O1 [Compound 76, 5-(4-Chlorophenyl)-1-(2-pyrrolidin-1-ylphenyl)-3-(2,2,6,6-tetramethyltetrahydro-2H-pyran-4-yl)-1H-pyrazole] | – | –
10 | 150 nM | CCc1ccccc1-n1nc(C2CCOCC2)cc1-c1ccc(Cl)cc1 [Compound 77, 5-(4-Chlorophenyl)-1-(2-ethylphenyl)-3-(tetrahydro-2H-pyran-4-yl)-1H-pyrazole] | – | –
11 | 180 nM | FC(F)(F)Oc1ccccc1-n1nc(C2CCOCC2)cc1-c1ccc(Cl)cc1 [Compound 79, 5-(4-Chlorophenyl)-3-(tetrahydro-2H-pyran-4-yl)-1-[2-(trifluoromethoxy)phenyl]-1H-pyrazole] | – | –
12 | 200 nM | Clc1ccc(-c2cc(C3CCOCC3)nn2-c2c(Cl)cccc2Cl)cc1 [Compound 80, 5-(4-Chlorophenyl)-1-(2,6-dichlorophenyl)-3-(tetrahydro-2H-pyran-4-yl)-1H-pyrazole] | – | –
13 | 400 nM | COc1ccccc1-n1nc(C2CC(C)(C)OC(C)(C)C2)cc1-c1ccc(OCCn2ccnc2)cc1 [Compound 81, 5-{4-[2-(1H-Imidazol-1-yl)ethoxy]phenyl}-1-(2-methoxyphenyl)-3-(2,2,6,6-tetramethyltetrahydro-2H-pyran-4-yl)-1H-pyrazole] | – | –
14 | 770 nM | COc1ccccc1-n1nc(C2CC(C)(C)OC(C)(C)C2)cc1-c1ccc(OCCN(C)C)cc1 [Compound 82, 2-{4-[1-(2-Methoxyphenyl)-3-(2,2,6,6-tetramethyltetrahydro-2H-pyran-4-yl)-1H-pyrazol-5-yl]phenoxy}-N,N-dimethylethanamine] | – | –
15 | 13 nM | COc1ccccc1-n1nc(C2=CC(C)(C)OC2(C)C)cc1-c1ccc(Cl)cc1 [Compound 97, 5-(4-Chlorophenyl)-1-(2-methoxyphenyl)-3-(2,2,5,5-tetramethyl-2,5-dihydrofuran-3-yl)-1H-pyrazole] | – | –

Row | SMILES | IC50 [2] | QPatch % Inhibition, High Freq [1] | QPatch % Inhibition, Low Freq [1]
16 | COc1ccccc1-n1nc(C2C[C@@H](C)O[C@H](C)C2)cc1-c1ccc(Cl)cc1 (relative stereo) [Compound 61, 5-(4-Chlorophenyl)-3-[(trans)-2,6-dimethyltetrahydro-2H-pyran-4-yl]-1-(2-methoxyphenyl)-1H-pyrazole] | 1.5 nM | 62% | 30%
17 | COc1ccccc1-n1nc([C@H]2CCO[C@@H](C(C)C)C2)cc1-c1ccc(Cl)cc1 (relative stereo) [Compound 64, 5-(4-Chlorophenyl)-1-(2-methoxyphenyl)-3-[(cis)-2-(1-methylethyl)tetrahydro-2H-pyran-4-yl]-1H-pyrazole] | 7.2 nM | 55% | 18%
18 | CC(C)(C)Oc1ccccc1-n1nc(C2CC(C)(C)OC(C)(C)C2)cc1-c1ccc(Cl)cc1 [Compound 48, 1-(2-tert-Butoxyphenyl)-5-(4-chlorophenyl)-3-(2,2,6,6-tetramethyltetrahydro-2H-pyran-4-yl)-1H-pyrazole] | 110 nM | – | –
19 | COc1ccccc1-n1nc(C2CCOCC2)cc1-c1ccc(Cl)cc1 [Compound 71, 5-(4-Chlorophenyl)-1-(2-methoxyphenyl)-3-(tetrahydro-2H-pyran-4-yl)-1H-pyrazole] | 31 nM | – | –
